Data from ChEMBL document CHEMBL3217745, “Identification of false positives in HTS hits to lead: The application of Bayesian models in HTS triage to rapidly deliver a series of selective TRPV4 antagonists” (Medchemcomm, 2013).
Blank lines part the entries; values can stand above or below the compound they belong to.

Columns and labels:
[1] = target: T1, Transient receptor potential cation channel subfamily V member 4 (Homo sapiens, UniProt Q9HBA0); assay: Antagonist activity at human TRPV4
[2] = target: T1, Transient receptor potential cation channel subfamily V member 4; assay: Antagonist activity at human TRPV4 expressed in CHOK1 cells assessed as inhibition of PF-04674114/GSK1016790A-induced changes in intracellular calcium level measured for 5 mins by FLIPR assay; type: cell-based, CHO-K1
[3] = target: Transient receptor potential cation channel subfamily M member 8 (Homo sapiens, UniProt Q7Z2W7); assay: Antagonist activity at human TRPM8
[4] = target: T2, Transient receptor potential cation channel subfamily V member 1 (Homo sapiens, UniProt Q8NER1); assay: Agonist activity at human TRPV1
[5] = target: T2, Transient receptor potential cation channel subfamily V member 1; assay: Antagonist activity at human TRPV1
[6] = target: T3, Transient receptor potential cation channel subfamily A member 1 (Homo sapiens, UniProt O75762); assay: Agonist activity at human TRPA1
[7] = target: T3, Transient receptor potential cation channel subfamily A member 1; assay: Antagonist activity at human TRPA1
[8] = target: T4, Transient receptor potential cation channel subfamily V member 4 (Rattus norvegicus, UniProt Q9ERZ8); assay: Agonist activity at rat TRPV4 expressed in CHOK1 cells assessed as changes in intracellular calcium level measured for 5 mins by FLIPR assay; type: cell-based, CHO-K1
[9] = target: T4, Transient receptor potential cation channel subfamily V member 4; assay: Antagonist activity at rat TRPV4 expressed in CHOK1 cells assessed as inhibition of PF-04674114/GSK1016790A-induced changes in intracellular calcium level measured for 5 mins by FLIPR assay; type: cell-based, CHO-K1
[10] = target: T1, Transient receptor potential cation channel subfamily V member 4; assay: Agonist activity at human TRPV4 expressed in CHOK1 cells assessed as changes in intracellular calcium level measured for 5 mins by FLIPR assay; type: cell-based, CHO-K1
[11] = Oral bioavailability in Sprague-Dawley rat at 2 mg/kg; type: ADME, organism-based; settings: in vivo
[12] = Tmax in Sprague-Dawley rat at 2 mg/kg, po; type: ADME, organism-based; parameters: dose 2 mg/kg, route oral; settings: in vivo
Rattus norvegicus [13] = assay: fCmax in Sprague-Dawley rat at 2 mg/kg, po; type: ADME, organism-based; parameters: dose 2 mg/kg, route oral; settings: in vivo
[14] = Volume of distribution at steady state in Sprague-Dawley rat at 1 mg/kg, iv; type: ADME, organism-based; parameters: dose 1 mg/kg, route intravenous; settings: in vivo, read-out: Vdss
Rattus norvegicus [15] = assay: Unbound clearance in Sprague-Dawley rat at 1 mg/kg, iv; type: ADME, organism-based; parameters: dose 1 mg/kg, route intravenous; settings: in vivo
[16] = Clearance in Sprague-Dawley rat at 1 mg/kg, iv; type: ADME, organism-based; parameters: dose 1 mg/kg, route intravenous; settings: in vivo
[17] = Half life in Sprague-Dawley rat at 1 mg/kg, iv; type: ADME, organism-based; parameters: dose 1 mg/kg, route intravenous; settings: in vivo
[18] = target: Voltage-gated inwardly rectifying potassium channel KCNH2 (Homo sapiens, UniProt Q12809); assay: Inhibition of dofetilide binding to human ERG
[19] = Lipophilicity, log D of the compound; type: physicochemical; settings: octanol/water
CYP2D6 = CYP2D6 (Homo sapiens, UniProt P10635); assay: Inhibition of CYP2D6 (unknown origin) at 3 uM relative to control; type: ADME
CYP3A4 = CYP3A4 (Homo sapiens, UniProt P08684); assay: Inhibition of CYP3A4 (unknown origin) at 3 uM relative to control; type: ADME
CYP2C9 = CYP2C9 (Homo sapiens, UniProt P11712); assay: Inhibition of CYP2C9 (unknown origin) at 3 uM relative to control; type: ADME
CYP1A2 = target: T5, CYP1A2 (Homo sapiens, UniProt P05177); assay: Inhibition of CYP1A2 (unknown origin) at 3 uM relative to control; type: ADME
T5 sequence (P05177 whole entry): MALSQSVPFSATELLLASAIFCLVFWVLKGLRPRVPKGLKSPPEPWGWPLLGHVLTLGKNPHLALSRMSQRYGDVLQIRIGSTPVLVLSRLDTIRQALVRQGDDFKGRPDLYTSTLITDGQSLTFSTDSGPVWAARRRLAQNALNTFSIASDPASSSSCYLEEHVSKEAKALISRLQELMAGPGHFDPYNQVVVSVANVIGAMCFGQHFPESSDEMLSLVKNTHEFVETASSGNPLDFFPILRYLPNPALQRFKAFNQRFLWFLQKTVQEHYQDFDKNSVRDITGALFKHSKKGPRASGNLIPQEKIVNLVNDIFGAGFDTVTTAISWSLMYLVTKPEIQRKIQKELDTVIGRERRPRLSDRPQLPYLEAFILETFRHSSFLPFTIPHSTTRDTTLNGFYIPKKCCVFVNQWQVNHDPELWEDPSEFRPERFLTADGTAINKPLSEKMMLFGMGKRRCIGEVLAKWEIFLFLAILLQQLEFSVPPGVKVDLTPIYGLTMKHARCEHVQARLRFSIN

[20] = Clearance in rat liver microsomes; type: ADME; settings: read-out: CLH
[21] = Clearance in human liver microsomes; type: ADME; settings: read-out: CLH

T3 sequence (O75762 whole entry): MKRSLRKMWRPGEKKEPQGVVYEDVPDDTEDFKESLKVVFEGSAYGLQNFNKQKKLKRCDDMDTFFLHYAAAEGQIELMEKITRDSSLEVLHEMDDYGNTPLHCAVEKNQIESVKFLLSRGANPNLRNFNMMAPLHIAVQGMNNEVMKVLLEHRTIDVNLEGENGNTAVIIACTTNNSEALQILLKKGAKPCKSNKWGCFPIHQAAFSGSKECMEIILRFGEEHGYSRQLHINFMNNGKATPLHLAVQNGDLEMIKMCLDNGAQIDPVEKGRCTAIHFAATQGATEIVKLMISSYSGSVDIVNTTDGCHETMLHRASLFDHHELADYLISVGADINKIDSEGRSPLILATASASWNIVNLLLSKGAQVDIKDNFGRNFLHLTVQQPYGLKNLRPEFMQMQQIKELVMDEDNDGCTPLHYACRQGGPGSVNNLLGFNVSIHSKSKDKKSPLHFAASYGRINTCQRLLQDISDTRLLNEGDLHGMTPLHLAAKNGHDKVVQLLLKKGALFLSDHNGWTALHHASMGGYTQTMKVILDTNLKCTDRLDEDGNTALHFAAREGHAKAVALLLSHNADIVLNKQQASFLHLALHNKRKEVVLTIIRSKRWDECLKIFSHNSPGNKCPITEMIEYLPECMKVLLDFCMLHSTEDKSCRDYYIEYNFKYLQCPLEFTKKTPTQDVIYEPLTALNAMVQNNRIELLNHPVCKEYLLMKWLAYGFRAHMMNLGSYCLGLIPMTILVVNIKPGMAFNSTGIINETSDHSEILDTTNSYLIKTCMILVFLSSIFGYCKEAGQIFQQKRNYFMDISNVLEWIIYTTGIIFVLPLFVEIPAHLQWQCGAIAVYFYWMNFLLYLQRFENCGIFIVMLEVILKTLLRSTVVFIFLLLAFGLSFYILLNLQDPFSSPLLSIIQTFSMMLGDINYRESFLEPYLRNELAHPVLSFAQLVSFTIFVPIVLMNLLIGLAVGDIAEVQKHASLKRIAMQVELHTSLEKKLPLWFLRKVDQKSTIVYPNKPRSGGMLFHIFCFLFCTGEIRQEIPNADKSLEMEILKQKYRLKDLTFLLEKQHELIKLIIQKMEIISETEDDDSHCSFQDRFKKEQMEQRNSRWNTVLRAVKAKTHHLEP
T2 sequence (Q8NER1 whole entry): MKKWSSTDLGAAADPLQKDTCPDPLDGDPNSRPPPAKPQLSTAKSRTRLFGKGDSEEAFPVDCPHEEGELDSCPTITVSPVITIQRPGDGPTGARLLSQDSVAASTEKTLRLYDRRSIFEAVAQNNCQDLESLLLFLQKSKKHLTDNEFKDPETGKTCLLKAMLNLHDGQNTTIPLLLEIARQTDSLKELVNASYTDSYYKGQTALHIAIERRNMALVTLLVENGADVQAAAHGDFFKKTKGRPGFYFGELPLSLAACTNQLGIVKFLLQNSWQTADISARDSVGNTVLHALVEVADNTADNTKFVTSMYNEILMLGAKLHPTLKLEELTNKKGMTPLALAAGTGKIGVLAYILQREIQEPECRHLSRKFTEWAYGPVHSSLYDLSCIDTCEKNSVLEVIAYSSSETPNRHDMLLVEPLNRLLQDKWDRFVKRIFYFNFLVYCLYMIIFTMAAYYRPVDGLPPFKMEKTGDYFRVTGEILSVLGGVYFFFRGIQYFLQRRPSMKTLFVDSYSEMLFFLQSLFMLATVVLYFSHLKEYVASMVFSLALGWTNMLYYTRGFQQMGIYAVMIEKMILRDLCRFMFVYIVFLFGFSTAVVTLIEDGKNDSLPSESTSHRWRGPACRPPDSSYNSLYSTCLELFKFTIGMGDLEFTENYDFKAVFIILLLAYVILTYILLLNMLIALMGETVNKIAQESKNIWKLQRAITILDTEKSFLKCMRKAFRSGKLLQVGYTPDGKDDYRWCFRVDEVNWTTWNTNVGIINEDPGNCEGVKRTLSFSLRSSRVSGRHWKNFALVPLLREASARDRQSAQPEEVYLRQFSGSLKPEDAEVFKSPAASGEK
T4 sequence (Q9ERZ8 whole entry): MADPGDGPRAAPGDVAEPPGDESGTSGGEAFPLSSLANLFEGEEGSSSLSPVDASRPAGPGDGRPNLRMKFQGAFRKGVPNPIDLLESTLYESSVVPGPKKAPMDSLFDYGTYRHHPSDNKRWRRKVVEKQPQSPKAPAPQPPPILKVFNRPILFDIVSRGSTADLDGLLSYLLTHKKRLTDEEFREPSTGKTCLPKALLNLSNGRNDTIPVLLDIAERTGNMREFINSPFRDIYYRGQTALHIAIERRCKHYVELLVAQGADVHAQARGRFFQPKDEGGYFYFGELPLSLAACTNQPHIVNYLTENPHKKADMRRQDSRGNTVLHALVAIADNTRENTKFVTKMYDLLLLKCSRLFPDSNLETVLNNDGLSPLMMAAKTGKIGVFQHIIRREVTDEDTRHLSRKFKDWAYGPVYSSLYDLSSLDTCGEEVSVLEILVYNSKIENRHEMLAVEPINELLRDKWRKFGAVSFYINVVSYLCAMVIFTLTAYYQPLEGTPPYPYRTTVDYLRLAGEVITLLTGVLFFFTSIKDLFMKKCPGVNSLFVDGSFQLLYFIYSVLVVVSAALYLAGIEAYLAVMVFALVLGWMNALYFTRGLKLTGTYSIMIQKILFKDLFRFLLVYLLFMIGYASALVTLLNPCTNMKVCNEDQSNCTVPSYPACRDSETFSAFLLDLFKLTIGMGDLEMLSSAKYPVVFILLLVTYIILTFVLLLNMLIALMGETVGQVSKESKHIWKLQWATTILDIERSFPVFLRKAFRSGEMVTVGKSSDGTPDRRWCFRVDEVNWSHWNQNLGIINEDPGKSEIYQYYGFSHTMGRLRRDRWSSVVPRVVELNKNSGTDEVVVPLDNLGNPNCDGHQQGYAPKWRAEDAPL
T1 sequence (Q9HBA0 whole entry): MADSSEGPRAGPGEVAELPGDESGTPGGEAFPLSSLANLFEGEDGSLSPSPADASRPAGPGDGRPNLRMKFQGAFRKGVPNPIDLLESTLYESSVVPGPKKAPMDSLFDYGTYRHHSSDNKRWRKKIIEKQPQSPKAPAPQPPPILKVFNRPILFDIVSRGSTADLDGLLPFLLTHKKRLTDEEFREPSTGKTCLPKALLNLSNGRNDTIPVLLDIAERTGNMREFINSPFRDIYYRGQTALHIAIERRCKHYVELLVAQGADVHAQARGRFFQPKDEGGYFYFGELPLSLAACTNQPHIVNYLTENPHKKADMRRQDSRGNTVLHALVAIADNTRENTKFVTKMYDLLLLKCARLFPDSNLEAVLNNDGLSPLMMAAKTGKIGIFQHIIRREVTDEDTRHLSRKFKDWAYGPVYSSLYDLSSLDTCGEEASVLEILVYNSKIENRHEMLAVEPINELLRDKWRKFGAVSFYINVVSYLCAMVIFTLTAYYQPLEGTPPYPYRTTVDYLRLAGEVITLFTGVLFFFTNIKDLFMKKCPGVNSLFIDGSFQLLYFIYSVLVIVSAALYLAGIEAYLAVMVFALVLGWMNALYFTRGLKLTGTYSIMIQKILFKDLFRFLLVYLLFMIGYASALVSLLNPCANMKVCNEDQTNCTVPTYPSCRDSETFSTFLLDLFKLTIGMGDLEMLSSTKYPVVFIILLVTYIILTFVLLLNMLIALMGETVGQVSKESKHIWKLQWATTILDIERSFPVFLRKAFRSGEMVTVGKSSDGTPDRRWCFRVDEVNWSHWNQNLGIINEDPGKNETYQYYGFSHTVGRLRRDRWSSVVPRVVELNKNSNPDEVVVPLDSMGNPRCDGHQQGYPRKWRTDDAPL
Chain of Transient receptor potential cation channel subfamily M member 8 (Q7Z2W7 whole entry): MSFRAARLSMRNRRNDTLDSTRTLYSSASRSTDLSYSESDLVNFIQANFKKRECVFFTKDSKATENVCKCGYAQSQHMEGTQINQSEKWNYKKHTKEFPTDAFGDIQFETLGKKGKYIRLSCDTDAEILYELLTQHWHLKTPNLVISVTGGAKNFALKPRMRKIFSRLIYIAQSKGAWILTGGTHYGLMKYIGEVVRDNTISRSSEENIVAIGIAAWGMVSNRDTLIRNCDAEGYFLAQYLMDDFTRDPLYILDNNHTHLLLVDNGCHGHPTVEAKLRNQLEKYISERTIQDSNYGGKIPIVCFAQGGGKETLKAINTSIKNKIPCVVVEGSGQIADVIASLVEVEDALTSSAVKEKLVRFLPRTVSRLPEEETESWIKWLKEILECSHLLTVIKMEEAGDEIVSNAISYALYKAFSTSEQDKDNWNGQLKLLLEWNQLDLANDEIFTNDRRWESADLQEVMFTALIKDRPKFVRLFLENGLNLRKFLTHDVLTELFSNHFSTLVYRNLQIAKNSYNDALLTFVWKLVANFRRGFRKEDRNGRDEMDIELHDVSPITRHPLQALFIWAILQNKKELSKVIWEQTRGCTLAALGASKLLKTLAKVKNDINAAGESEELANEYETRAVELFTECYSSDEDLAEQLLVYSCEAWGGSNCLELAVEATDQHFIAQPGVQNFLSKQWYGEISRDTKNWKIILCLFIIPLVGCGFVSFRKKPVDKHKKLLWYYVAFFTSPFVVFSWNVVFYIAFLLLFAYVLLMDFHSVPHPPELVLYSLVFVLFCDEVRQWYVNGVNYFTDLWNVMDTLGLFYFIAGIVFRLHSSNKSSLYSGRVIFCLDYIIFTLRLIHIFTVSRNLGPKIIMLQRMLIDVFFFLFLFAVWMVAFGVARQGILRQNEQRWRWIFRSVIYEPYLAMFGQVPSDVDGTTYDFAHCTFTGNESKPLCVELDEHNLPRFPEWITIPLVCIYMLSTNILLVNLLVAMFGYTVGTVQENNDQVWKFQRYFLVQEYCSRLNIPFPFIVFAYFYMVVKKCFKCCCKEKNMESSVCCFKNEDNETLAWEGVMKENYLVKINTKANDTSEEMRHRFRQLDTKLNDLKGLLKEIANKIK

SMILES: O=S(=O)(c1ccc(Cl)cc1Cl)N1CCC(O)(CSc2ccncc2)CC1
IC50 [1]: 2.2 µM

SMILES: N#Cc1ccc(S(=O)(=O)N2CCC(O)(COc3ccc(C#N)c(F)c3)CC2)c(Cl)c1
IC50 [2]: 0.0491 µM

SMILES: N#Cc1ccc(OCC2(O)CCN(S(=O)(=O)c3ccc(Cl)cc3Cl)CC2)cc1
IC50 [3]: 4.8 µM | EC50 [4]: > 20 µM | IC50 [5]: > 3.9 µM | EC50 [6]: > 12.5 µM | IC50 [7]: > 12.5 µM | EC50 [8]: > 1 µM | IC50 [9]: 1.15 µM | EC50 [10]: > 1 µM | IC50 [2]: 0.0497 µM

SMILES: N#Cc1ccc(S(=O)(=O)N2CCC(O)(COc3ccc(C#N)c(F)c3)CC2)c(C#N)c1
IC50 [2]: 0.0505 µM

The remaining compounds from weak to strong by IC50 [2], led by results:

IC50 [2]: 0.0129 µM
SMILES: N#Cc1ccc(OCC2(O)CCN(S(=O)(=O)c3ccc(Cl)cc3Cl)CC2)cc1F

IC50 [2]: 0.004 µM
SMILES: N#Cc1ccc(S(=O)(=O)N2CC(O)(COc3ccc(C#N)c(Cl)c3)C2)c(Cl)c1

bioavailability [11]: 73% | Tmax [12]: 0.75 h | fCmax (Rattus norvegicus [13]): 16 nM | Vd [14]: 4.3 L/kg | CL free (Rattus norvegicus [15]): 45.4 L/h/kg | clearance [16]: 1.41 L/h/kg | half-life [17]: 2.2 h | logD [19]: 3.2 | inhibition at 3 µM (CYP2D6): < 20% | inhibition at 3 µM (CYP3A4): < 20% | inhibition at 3 µM (CYP2C9): < 20% | inhibition at 3 µM (CYP1A2): < 20% | microsomal CLint [20]: 87 µL/min/mg | microsomal CLint [21]: < 8.1 µL/min/mg | IC50 [3]: 9.58 µM | EC50 [4]: > 20 µM | IC50 [5]: > 16 µM | EC50 [6]: > 12.5 µM | IC50 [7]: > 12.5 µM | EC50 [8]: > 1 µM | IC50 [9]: 0.0341 µM | EC50 [10]: > 1 µM | IC50 [2]: 0.0038 µM
SMILES: N#Cc1ccc(OCC2(O)CN(S(=O)(=O)c3ccc(Cl)cc3Cl)C2)cc1F
IC50 [18]: 9.67 µM

IC50 [2]: 0.0036 µM
SMILES: N#Cc1ccc(OCC2(O)CN(S(=O)(=O)c3ccc(Cl)cc3C#N)C2)cc1Cl

IC50 [2]: 0.0034 µM
SMILES: N#Cc1ccc(OCC2(O)CN(S(=O)(=O)c3ccc(Cl)cc3C#N)C2)cc1F
